The values below come from patent US12435060B2, “Acylamino bridged heterocyclic compound, and composition and application thereof” (BEIJING SCITECH-MQ PHARMACEUTICALS LIMITED, priority 2019, dated 2025).

Bounds are passed on as bounds.

The test system of this assay is HT29 cells. The assay can be described thus: Inhibition of cell necrosis (CCK8 method), induced programmed necrosis of HT29 cells. The format is cell-based. Conditions: Homo sapiens, HT-29; rescue from necrosis induced by TNF-α 20 ng/mL, AT-406 1 μM, Z-VAD-FMK 20 μM; 16-20 hours; CCK-8, OD 450 nm. The method, boiled down: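 HT29 cells in McCOY's 5A with 10% FBS were pre-treated for 30 min with compound (9 fourfold steps, 25000 to 0.38 nM final, 0.25% DMSO). Necrosis was then induced with TNF-α 20 ng/mL, AT-406 1 μM and Z-VAD-FMK 20 μM for 16-20 h. Viability was read by CCK-8 OD450, normalized between uninduced and induced wells, and IC50 was curve-fitted.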
Background: Formazan colour is commonly taken as a measure of viable cells.
`O=C(Nc1cc(-c2cc(OCCCCO)ccc2Cl)ccn1)c1nnc(Cc2ccccc2)[nH]1` [Example 371, 5-benzyl-N-(4-(2-chloro-5-(4-hydroxybutoxy)phenyl)pyridin-2-yl)-4H-1,2,4-triazole-3-carboxamide] displayed an IC50 of no more than 100 nM. The molecule `Cc1ccc(OCCCC(C)(C)O)cc1-c1ccnc(NC(=O)c2nnc(Cc3ccc(F)c(F)c3F)[nH]2)c1` [Example 214, 5-(2,3,4-trifluorobenzyl)-N-(4-(5-((4-hydroxy-4-methylpentyl)oxy)-2-methylphenyl)pyridin-2-yl)-4H-1,2,4-triazole-3-carboxamide] registered an IC50 of no more than 100 nM. `O=C(Nc1cc(-c2cc(OCCCCO)ccc2Cl)ccn1)c1nnc(CC2CCCCC2)[nH]1` [Example 374, N-(4-(2-chloro-5-(4-hydroxybutoxy)phenyl)pyridin-2-yl)-5-(cyclohexylmethyl)-4H-1,2,4-triazole-3-carboxamide] returned an IC50 of no more than 100 nM. Take `Cc1ccc(OCCCC(C)(C)O)cc1-c1cc(NC(=O)c2nnc(Cc3ccccc3F)[nH]2)ncc1C` [Example 240, 5-(2-fluorobenzyl)-N-(4-(5-((4-hydroxy-4-methylpentyl)oxy)-2-methylphenyl)-5-methylpyridin-2-yl)-4H-1,2,4-triazole-3-carboxamide]: the IC50 was in the range of 100 to 1000 nM. For `COCCOc1ccc(Cl)c(-c2ccnc(NC(=O)c3nnc(CC4CCCCC4)[nH]3)c2)c1` [Example 382, N-(4-(2-chloro-5-(2-methoxyethoxy)phenyl)pyridin-2-yl)-5-(cyclohexylmethyl)-4H-1,2,4-triazole-3-carboxamide], the IC50 is no more than 100 nM. For `O=C(Nc1cc(-c2cc(OCC3CCOCC3)ccc2Cl)ncn1)c1nnc(CC2CCCC2)[nH]1` [Example 468, 5-(cyclopentylmethyl)-N-(6-(2-chloro-5-((tetrahydro-2H-pyran-4-yl)methoxy)phenyl)pyrimidin-4-yl)-4H-1,2,4-triazole-3-carboxamide], the IC50 is no more than 100 nM.

Molecule `Cc1ccc(OCC2CCOCC2)cc1-c1cc(NC(=O)c2nnc(CC3CCCCC3)[nH]2)ncc1Cl` [Example 250, N-(5-chloro-4-(2-methyl-5-((tetrahydro-2H-pyran-4-yl)methoxy)phenyl)pyridin-2-yl)-5-(cyclohexylmethyl)-4H-1,2,4-triazole-3-carboxamide] returned an IC50 of no more than 100 nM.

In the case of `Cc1ccc(OCCF)cc1-c1ccnc(NC(=O)c2nnc(Cc3ccccc3)[nH]2)c1` [Example 68, 5-benzyl-N-(4-(5-(2-fluoroethoxy)-2-methylphenyl)pyridin-2-yl)-4H-1,2,4-triazole-3-carboxamide], the IC50 fell in the range of 100 to 1000 nM. Under `Cc1ccc(OCC2CCOC2)cc1-c1ccnc(NC(=O)c2nnc(Cc3ccccc3)[nH]2)c1` (centres unmarked) [Example 122, 5-benzyl-N-(4-(2-methyl-5-((tetrahydrofuran-3-yl)methoxy)phenyl)pyridin-2-yl)-4H-1,2,4-triazole-3-carboxamide] stands no more than 100 nM; under `CCN(CC)CCOc1ccc(C)c(-c2ccnc(NC(=O)c3nnc(Cc4ccccc4)[nH]3)c2)c1` [Example 135, 5-benzyl-N-(4-(5-(2-(diethylamino)ethoxy)-2-methylphenyl)pyridin-2-yl)-4H-1,2,4-triazole-3-carboxamide], no more than 100 nM; under `Cc1ncc(OCCOC(C)C)cc1-c1ccnc(NC(=O)c2nnc(Cc3ccccc3)[nH]2)c1` [Example 132, 5-benzyl-N-(5-(2-isopropoxyethoxy)-2-methyl-[3,4′-dipyridine]-2′-yl)-4H-1,2,4-triazole-3-carboxamide], 100 to 1000 nM. `O=C(Nc1cc(-c2ccccc2OC(F)(F)F)ccn1)c1nnc(Cc2ccccc2)[nH]1` [Example 6, 5-benzyl-N-(4-(2-(trifluoromethoxy)phenyl)pyridin-2-yl)-4H-1,2,4-triazole-3-carboxamide] registered an IC50 of 1000 to 10000 nM. Turning to `CCOc1ccc(C)c(-c2cncc(NC(=O)c3nnc(Cc4ccccc4)[nH]3)c2)c1` [Example 197, 5-benzyl-N-(5-(5-ethoxy-2-methylphenyl)pyridin-3-yl)-4H-1,2,4-triazole-3-carboxamide], the IC50 is greater than 10000 nM. `O=C(Nc1cc(-c2cc(OCCC3CCOCC3)ccc2C(F)(F)F)ccn1)c1nnc(Cc2ccccc2)[nH]1` [Example 305, 5-benzyl-N-(4-(5-(2-(tetrahydro-2H-pyran-4-yl)ethoxy)-2-(trifluoromethyl)phenyl)pyridin-2-yl)-4H-1,2,4-triazole-3-carboxamide] displayed an IC50 of no more than 100 nM. As for `Cc1ccc(C2CCOCC2)cc1-c1ccnc(NC(=O)c2nnc(Cc3ccccc3)[nH]2)c1` [Example 479, 5-benzyl-N-(4-(2-methyl-5-(tetrahydro-2H-pyran-4-yl)phenyl)pyridin-2-yl)-4H-1,2,4-triazole-3-carboxamide], the IC50 lay in the range of 100 to 1000 nM. `CC(C)(O)CCCOc1ccc(Cl)c(-c2ccnc(NC(=O)c3nnc(Cc4cc(F)cc(Cl)c4)[nH]3)c2)c1` [Example 341, N-(4-(2-chloro-5-((4-hydroxy-4-methylpentyl)oxy)phenyl)pyridin-2-yl)-5-(3-chloro-5-fluorobenzyl)-4H-1,2,4-triazole-3-carboxamide] came in with an IC50 of 100 to 1000 nM. Under `Cc1ccc(OCC2CCOCC2)cc1-c1cc(NC(=O)c2nnc(CC3CCCCC3)[nH]2)ncn1` [Example 444, 5-(cyclohexylmethyl)-N-(6-(2-methyl-5-((tetrahydro-2H-pyran-4-yl)methoxy)phenyl)pyrimidin-4-yl)-4H-1,2,4-triazole-3-carboxamide] stands no more than 100 nM; under `O=C(Nc1cc(-c2cc(OCCC3CCOCC3)ccc2C(F)(F)F)ncn1)c1nnc(CC2CCCCC2)[nH]1` [Example 461, 5-(cyclohexylmethyl)-N-(6-(5-(2-(tetrahydro-2H-pyran-4-yl)ethoxy)-2-(trifluoromethyl)phenyl)pyrimidin-4-yl)-4H-1,2,4-triazole-3-carboxamide], no more than 100 nM; under `CC(C)(O)CCCCOc1ccc(Cl)c(-c2cc(NC(=O)c3nnc(CC4CCCCC4)[nH]3)ncc2Cl)c1` [Example 421, N-(5-chloro-4-(2-chloro-5-((5-hydroxyl-5-methylhexyl)oxy)phenyl)pyridin-2-yl)-5-(cyclohexylmethyl)-4H-1,2,4-triazole-3-carboxamide], 100 to 1000 nM. On to `Cc1ccc(OC2CC2)cc1-c1ccnc(NC(=O)c2nnc(Cc3ccccc3)[nH]2)c1` [Example 155, 5-benzyl-N-(4-(5-cyclopropoxy-2-methylphenyl)pyridin-2-yl)-4H-1,2,4-triazole-3-carboxamide], for which the IC50 was 100 to 1000 nM. On to `COc1cnc(C)cc1-c1ccnc(NC(=O)c2nnc(Cc3ccccc3)[nH]2)c1` [Example 61, 5-benzyl-N-(5′-methoxy-2′-methyl-[4,4′-bipyridin]-2-yl)-4H-1,2,4-triazole-3-carboxamide], for which the IC50 is 1000 to 10000 nM.

`Cc1cnc(NC(=O)c2nnc(CC3CCCCC3)[nH]2)cc1-c1cc(OCC2CCOCC2)ccc1Cl` [Example 427, N-(4-(2-chloro-5-((tetrahydro-2H-pyran-4-yl)methoxy)phenyl)-5-methylpyridin-2-yl)-5-(cyclohexylmethyl)-4H-1,2,4-triazole-3-carboxamide] registered an IC50 of 100 to 1000 nM. As for `CCC(O)(CC)CCCOc1ccc(C)c(-c2cc(NC(=O)c3nnc(Cc4ccccc4F)[nH]3)ncc2F)c1` [Example 242, N-(4-(5-((4-ethyl-4-hydroxyhexyl)oxy)-2-methylphenyl)-5-fluoropyridin-2-yl)-5-(2-fluorobenzyl)-4H-1,2,4-triazole-3-carboxamide], the IC50 is no more than 100 nM.

For orientation: IC50 means the concentration that inhibits the measured activity by half. A higher IC50 goes with weaker potency.
